Source: the CheMixHub viscosity set

Assay: xn = mol fraction of the nth substance listed

CCCCC + CCCCCCCCCC
viscosity [mPa·s]
Conditions | x1 = 0.1031 | x1 = 0.2082 | x1 = 0.3062 | x1 = 0.408 | x1 = 0.5061 | x1 = 0.6029 | x1 = 0.7058 | x1 = 0.804 | x1 = 0.9008
297.95 K, 101 kPa | 0.7711 | 0.6992 | 0.6136 | 0.5536 | 0.4708 | 0.4339 | 0.3667 | 0.32 | 0.2645
298.15 K, 101.33 kPa | 0.7775 | 0.6969 | 0.6169 | 0.5449 | 0.4818 | 0.4285 | 0.3626 | 0.3143 | 0.2671
313.05 K, 101 kPa | 0.6585 | 0.5949 | 0.5183 | 0.4627 | 0.4237 | 0.3644 | 0.3189 | 0.2801 | 0.2396

CCCCC + CCCCCCCCCCCC
Conditions | viscosity [mPa·s]
293.15 K, 100 kPa, x1 = 0.0988 | 1.33
293.15 K, 100 kPa, x1 = 0.2004 | 1.153
293.15 K, 100 kPa, x1 = 0.2963 | 0.995
293.15 K, 100 kPa, x1 = 0.4022 | 0.847
293.15 K, 100 kPa, x1 = 0.5005 | 0.686
293.15 K, 100 kPa, x1 = 0.5989 | 0.581
293.15 K, 100 kPa, x1 = 0.7029 | 0.468
293.15 K, 100 kPa, x1 = 0.8 | 0.388
293.15 K, 100 kPa, x1 = 0.9011 | 0.304
298.15 K, 100 kPa, x1 = 0.0988 | 1.216
298.15 K, 100 kPa, x1 = 0.2004 | 1.054
298.15 K, 100 kPa, x1 = 0.2963 | 0.923
298.15 K, 100 kPa, x1 = 0.4022 | 0.79
298.15 K, 100 kPa, x1 = 0.5005 | 0.642
298.15 K, 100 kPa, x1 = 0.5989 | 0.548
298.15 K, 100 kPa, x1 = 0.7029 | 0.443
298.15 K, 100 kPa, x1 = 0.8 | 0.369
298.15 K, 100 kPa, x1 = 0.9011 | 0.289
298.15 K, 101.33 kPa, x1 = 0.1094 | 1.194
298.15 K, 101.33 kPa, x1 = 0.2073 | 1.037
298.15 K, 101.33 kPa, x1 = 0.299 | 0.9143
298.15 K, 101.33 kPa, x1 = 0.4078 | 0.7711
298.15 K, 101.33 kPa, x1 = 0.5008 | 0.6622
298.15 K, 101.33 kPa, x1 = 0.6031 | 0.5504
298.15 K, 101.33 kPa, x1 = 0.7069 | 0.4481
298.15 K, 101.33 kPa, x1 = 0.8062 | 0.3631
298.15 K, 101.33 kPa, x1 = 0.8991 | 0.2925
303.15 K, 100 kPa, x1 = 0.0988 | 1.119
303.15 K, 100 kPa, x1 = 0.2004 | 0.975
303.15 K, 100 kPa, x1 = 0.2963 | 0.857
303.15 K, 100 kPa, x1 = 0.4022 | 0.738
303.15 K, 100 kPa, x1 = 0.5005 | 0.603
303.15 K, 100 kPa, x1 = 0.5989 | 0.516
303.15 K, 100 kPa, x1 = 0.7029 | 0.42
303.15 K, 100 kPa, x1 = 0.8 | 0.358
303.15 K, 100 kPa, x1 = 0.9011 | 0.275
308.15 K, 100 kPa, x1 = 0.0988 | 1.032
308.15 K, 100 kPa, x1 = 0.2004 | 0.906
308.15 K, 100 kPa, x1 = 0.2963 | 0.8
308.15 K, 100 kPa, x1 = 0.4022 | 0.693
308.15 K, 100 kPa, x1 = 0.5005 | 0.568
308.15 K, 100 kPa, x1 = 0.5989 | 0.489
308.15 K, 100 kPa, x1 = 0.7029 | 0.399
308.15 K, 100 kPa, x1 = 0.8 | 0.34
313.15 K, 100 kPa, x1 = 0.0988 | 0.957
313.15 K, 100 kPa, x1 = 0.2004 | 0.843
313.15 K, 100 kPa, x1 = 0.2963 | 0.748
313.15 K, 100 kPa, x1 = 0.4022 | 0.65
313.15 K, 100 kPa, x1 = 0.5005 | 0.536
313.15 K, 100 kPa, x1 = 0.5989 | 0.463
313.15 K, 100 kPa, x1 = 0.7029 | 0.38
318.15 K, 100 kPa, x1 = 0.0988 | 0.89
318.15 K, 100 kPa, x1 = 0.2004 | 0.789
318.15 K, 100 kPa, x1 = 0.2963 | 0.702
318.15 K, 100 kPa, x1 = 0.4022 | 0.612
318.15 K, 100 kPa, x1 = 0.5005 | 0.507
318.15 K, 100 kPa, x1 = 0.5989 | 0.44
323.15 K, 100 kPa, x1 = 0.0988 | 0.83
323.15 K, 100 kPa, x1 = 0.2004 | 0.734
323.15 K, 100 kPa, x1 = 0.2963 | 0.66
323.15 K, 100 kPa, x1 = 0.4022 | 0.578
323.15 K, 100 kPa, x1 = 0.5005 | 0.481
